Patent US11878013B2, “Isoquinoline derivative, preparing method thereof, and pharmaceutical composition for preventing or treating autophagy related diseases containing the same as an active ingredient” (Korea Research Institute of Chemical Technology, priority 2021, dated 2024)

Columns and labels:
[1] = system: zebrafish; assay: Whitening effect: melanin synthesis / melanocyte formation in zebrafish; format: in vivo
Excerpt: When observing the regeneration of melanin pigment, after inhibiting the formation of melanin pigment, it can be investigated by limiting it to the melanocyte generation pathway, and it is easy to observe the melanin synthesized in the initial stage of development. Therefore, zebrafish is more useful for the study of melanin pigment changes compared to other animal models (Logan D W, Burn S F, Jackson I J. (2006) Regulation of pigmentation in zebrafish melanophores. Pigment Cell Res. 2006 June; 19(3):206-13.).
Particularly, zebrafish fertilized eggs 10 hours after fertilization were placed in a 24-well plate (10 eggs/well), and 1 ml of egg water was added to each well of the plate. The compound of Example 1 was added to each well at the concentrations of 0.1 μM and 1 μM, so that the final volume of each well was 2 ml. Then, each 24-well plate was wrapped in foil to block light, and then incubated in a 28° C. incubator for 22 hours. At 32 hours after fertilization, in order to photograph the formation of black melanocytes, the chorion of the developing embryo was peeled off using a forcep (Fine Science Tools). After anesthetizing the developing embryo with Tricaine (4 g/L), the embryo was photographed on 3% methyl cellulose. As the equipment for photographing the developing embryo, a LEICA MZ10F fluorescence microscope, a LEICA DFC425 camera, and Leica Application Suite software (v4.5) were used. In all the experimental procedures, egg water sterilized after dissolving 60 mg/L of sea salt (Sigma-Aldrich, S9883) in tertiary distilled water was used as a solution for culturing the developing embryo. As a control group, a solvent control group (0.4% DMSO) and phenylthiourea (200 μM PTU), known as a tyrosinase inhibitor, were used (FIG. 6A).
In the same manner, experiments were performed with the compound of Comparative Example 1 at the concentrations of 0.5 μM, 1 μM, and 5 μM, and the results are shown in FIG. 6B.
On the other hand, in order to confirm the ability of the compound of the present invention to inhibit the melanin synthesis of the already generated melanocytes, the following experiment was performed with juvenile fish 60 hours after fertilization. Particularly, juvenile fish 60 hours after fertilization were placed in a 24-well plate (10/well), and 1 ml of egg water was added to each well of the plate. The compound of Example 1 was added to each well at the concentrations of 10 μM and 20 μM, so that the final volume of each well was 2 ml. Then, each 24-well plate was wrapped in foil to block light, and then incubated in a 28° C. incubator for 12 hours. In order to photograph the formation of black melanocytes, the developing embryo was anesthetized with Tricaine (4 g/L), and then the embryo was photographed on 3% methyl cellulose. […]

[2] = system: VERO, HFL-1, L929, NIH 3T3, CHO-K1 and HMV-II cell lines; assay: Non-selective general cytotoxicity test; format: cell-based; conditions: all cell lines, 24 hours
Experimental: In this experiment, the cell lines derived from different species, VERO (African green monkey kidney cell line), HFL-1 (human embryonic lung cell line), L929 (mouse fibroblast cell line), NIH 3T3 (mouse embryonic fibroblast cell line), CHO-K1 (Chinese hamster ovary cell line) and HMV-II (human malignant melanoma cell line), were used.
Particularly, VERO, HFL-1, L929 and NIH 3T3 cell lines were cultured in DMEM, CHO-K1 was cultured in RPMI1640 medium, and HMV-II was cultured in DME/F-12 medium. 10% FBS (Fetal Bovine Serum) and 100 μg/mL of antibiotics were added to each medium. The cells were acclimatized and cultured in a humidified 37° C. 5% CO2 incubator, washed with PBS (phosphate buffer solution) at the time of growth that occupies 70-80% of the culture dish every 2-3 days, and then subcultured by treating with Trypsin-EDTA (Gibco, USA).
The cells used in this Experimental Example were aliquoted into a 96-well culture plate at the density of 15,000-25,000 cells/well, and then acclimatized and cultured in a humidified 37° C. […] The cell viability was measured according to the standard method using a Cyto XTM cell viability assay kit ([…]). […] 5% CO2 incubator, followed by measuring the absorbance at 450 nm. The survival rate was measured by calculating the ratio of the absorbance changed compared to the absorbance measured in the group treated with DMSO alone.

[3] = system: artificial skin tissue; assay: Skin toxicity test on artificial skin (MTT); format: cell-based
Experimental: In order to evaluate the skin toxicity that may be induced upon skin contact of the compound of Example 1 of the present invention, the following experiment was performed using the artificial skin prepared with a structure similar to the skin of a living body.
Particularly, the experiment was performed according to OECD Guideline for the Testing of Chemicals No. 439, OECD (2010) and the method recommended by the manufacturer (Tegoscience).
First, the artificial skin cultured in agarose medium was transferred to a 12-well cell culture plate, to which culture medium was added, followed by culture in a humidified 37° C. 5% CO2 incubator for one day. The medium on the artificial skin culture surface was eliminated, and 90 μl of the compound of Example 1 of the present invention diluted with PBS was evenly applied to the skin surface, followed by incubation at room temperature for 15 minutes. The cell surface was washed twice with 10 ml of PBS, and a fresh culture medium was added, followed by incubation in a humidified 37° C. 5% CO2 incubator for 42 hours. In order to measure the viability of the skin, the artificial skin was transferred to a 12-well plate containing 2 ml of MTT solution (0.3 mg/ml), followed by culture for 3 hours. The stained artificial skin tissue was taken and transferred to a tube containing 500 μl of 0.04 N-isopropanol, and then incubated with shaking for 4 hours to decolorize. The solution was centrifuged at 13,000 rpm for 5 minutes, 100 μl of the supernatant was transferred to each well of a 96-well plate, and absorbance was measured at 570 nm.

[O-][S+](c1ccc(F)cc1)c1nccc2ccccc12 (stereo not shown) [Example 1, 1-((4-Fluorophenyl)Sulfinyl)Isoquinoline]
synthesis of melanin ([1]; 1 μM, treated 10 hours after fertilization, read at 32 hours after fertilization, PTU 200 μM as control): level similar to that in the group treated with PTU
melanin synthesis inhibitory effect ([1]; 20 μM, treated 60 hours after fertilization, read at 72 hours after fertilization, compared to PTU 0.2 mM): superior melanin synthesis inhibitory effect compared to PTU
superior activity compared to Comparative Example 1 (melanin synthesis inhibition) ([1]; 32 hours after fertilization, 1 μM vs 5 μM for PTU-like effect): ≥ 5 fold
cytotoxicity ([2]; maximum test concentration of 100 μM): less than 50%
toxicity (cell viability) ([2]; up to 10 μM): no significant toxicity
survival rate of artificial skin ([3]; 50 μM, the maximum concentration): slight decrease of the survival rate
survival rate of artificial skin ([3]; up to 20 μM): no significant decrease of the survival rate
